{"source": "patent US11505521B2", "about": "(Biothea Pharma, Inc., priority 2018, dated 2022)", "key": {"[1]": {"settings": "water, 25° C.", "experimental": "The sample was dissolved and diluted to the volume with water and mixed well. The sample was left in an oven at 25° C., and samples were collected at 0 hours, 24 hours, 48 hours, 72 hours, 96 hours, and 120 hours. The diluent (mobile phase) used for the study was prepared by mixing about 1.36 g of potassium dihydrogen orthophosphate and 1.74 g of dipotassium hydrogen orthophosphate in a 1000 mL volumetric flask, and adjusting the pH to 3.0 with orthophosphoric acid. The appearance and purity of the samples were tested."}, "[2]": {"experimental": "The procedure for the various conditions is set forth below.\nStandard: 20 mg of sample was weighed and dissolved in a 50 mL volumetric flask, diluted to the required volume with diluents, and mixed well.\nAcid Degradation: 20 mg of sample was weighed and placed in a 50 mL volumetric flask. 2 mL of 2.0 mol/L HCl was added to the flask. The flask was placed in a water bath at 40° C. for 7 days.\nAlkaline Degradation: 20 mg of sample was weighed and placed in a 50 mL volumetric flask. 2 mL of 0.05 mol/L NaOH was added to the flask. The flask was stored at room temperature for 24 hours.\nOxidation: 20 mg of sample was weighed and placed in a 50 mL volumetric flask. 2 mL of 10% H2O2 was added to the flask. The flask was placed in a water bath at 40° C. for 44 hours.\nThermal Degradation (solution, 80° C.): 20 mg of sample was weighed and dissolved in a 50 mL volumetric flask, diluted to the required volume with diluents, and mixed well. The flask was placed in a water bath at 80° C. for 46 hours.\nThermal Degradation (solid, 80° C.): 120 mg of sample was placed in an oven at 80° C. for 7 days.\nThe appearance and purity of the samples were test."}, "[3]": {"settings": "no humidity", "experimental": "The samples were prepared in a brown glass bottle with the outer packing being an aluminum foil bag, and the samples were stored between layers of dessicant silica gels. The appearance, residual material, purity, TGA, and DSC were analyzed each month."}, "[4]": {"settings": "20 mg in 20 mL water, 25° C.", "experimental": "The tests were conducted using Sartorius balances (Model SQP) and a pH meter (Brand: INESA, Model No. PHS-3E). 20 mg of the sample was weighed and transferred into a 20 mL volumetric flask with the remainder of the volume comprising water. The solution was mixed. The pH meter was calibrated with pH 4.0 and pH 6.8 standard buffer solutions at 25° C."}, "[5]": {"settings": "Acid Degradation: 2.0 mol/L HCl, 40° C., 7 days"}, "[6]": {"settings": "Alkaline Degradation: 0.05 mol/L NaOH, room temperature, 24 hours"}, "[7]": {"settings": "Oxidation: 10% H2O2, 40° C., 44 hours"}, "[8]": {"settings": "Thermal Degradation (solid): 80° C., 7 days"}, "[9]": {"settings": "Thermal Degradation (solution): 80° C., 46 hours"}}, "note": "Where two headings read alike, the source gives them in different places.", "data": [{"compound": "CNC[C@H](O)c1ccc(O)c(O)c1", "note": "[epinephrine malonate]", "values": [{"measurement": "Appearance", "setting": "[1]; 0 hours", "result": "Colorless liquid"}, {"measurement": "Purity", "setting": "[1]; 0 hours", "result": 99.97, "unit": "%"}, {"measurement": "Appearance", "setting": "[1]; 24 hours", "result": "Colorless liquid"}, {"measurement": "Purity", "setting": "[1]; 24 hours", "result": 99.79, "unit": "%"}, {"measurement": "Appearance", "setting": "[1]; 48 hours", "result": "Colorless liquid"}, {"measurement": "Purity", "setting": "[1]; 48 hours", "result": 99.63, "unit": "%"}, {"measurement": "Appearance", "setting": "[1]; 72 hours", "result": "Colorless liquid"}, {"measurement": "Purity", "setting": "[1]; 72 hours", "result": 99.51, "unit": "%"}, {"measurement": "Appearance", "setting": "[1]; 96 hours", "result": "Colorless liquid"}, {"measurement": "Purity", "setting": "[1]; 96 hours", "result": 99.42, "unit": "%"}, {"measurement": "Appearance", "setting": "[1]; 120 hours", "result": "Colorless liquid"}, {"measurement": "Purity", "setting": "[1]; 120 hours", "result": 99.34, "unit": "%"}, {"measurement": "Appearance", "setting": "[2]; [5]", "result": "Colorless liquid"}, {"measurement": "Purity", "setting": "[2]; [5]", "result": 91.96, "unit": "%"}, {"measurement": "Appearance", "setting": "[2]; [6]", "result": "Brown liquid"}, {"measurement": "Purity", "setting": "[2]; [6]", "result": 98.68, "unit": "%"}, {"measurement": "Appearance", "setting": "[2]; [7]", "result": "Colorless liquid"}, {"measurement": "Purity", "setting": "[2]; [7]", "result": 97.04, "unit": "%"}, {"measurement": "Appearance", "setting": "[2]; Standard (no degradation)", "result": "Off-white powder"}, {"measurement": "Purity", "setting": "[2]; Standard (no degradation)", "result": 99.89, "unit": "%"}, {"measurement": "Appearance", "setting": "[2]; [8]", "result": "Off-white powder"}, {"measurement": "Purity", "setting": "[2]; [8]", "result": 99.10, "unit": "%"}, {"measurement": "Appearance", "setting": "[2]; [9]", "result": "Colorless liquid"}, {"measurement": "Purity", "setting": "[2]; [9]", "result": 96.04, "unit": "%"}, {"measurement": "Appearance", "setting": "[3]; 30° C., month 0", "result": "Off-white"}, {"measurement": "DSC Offset", "setting": "[3]; 30° C., month 0", "result": "Offset: 104.25 °C"}, {"measurement": "DSC Onset", "setting": "[3]; 30° C., month 0", "result": "Onset: 98.8 °C"}, {"measurement": "Purity", "setting": "[3]; 30° C., month 0", "result": 99.96, "unit": "%"}, {"measurement": "TGA", "setting": "[3]; 30° C., month 0", "result": 0.32, "unit": "%"}, {"measurement": "Appearance", "setting": "[3]; 30° C., month 1", "result": "Off-white"}, {"measurement": "DSC Offset", "setting": "[3]; 30° C., month 1", "result": "Offset: 103.99 °C"}, {"measurement": "DSC Onset", "setting": "[3]; 30° C., month 1", "result": "Onset: 98.80 °C"}, {"measurement": "Purity", "setting": "[3]; 30° C., month 1", "result": 99.96, "unit": "%"}, {"measurement": "Residual Material (%)", "setting": "[3]; 30° C., month 1", "result": 100.31, "unit": "%"}, {"measurement": "TGA", "setting": "[3]; 30° C., month 1", "result": 0.60, "unit": "%"}, {"measurement": "Appearance", "setting": "[3]; 30° C., month 2", "result": "Off-white"}, {"measurement": "DSC Offset", "setting": "[3]; 30° C., month 2", "result": "Offset: 104.47 °C"}, {"measurement": "DSC Onset", "setting": "[3]; 30° C., month 2", "result": "Onset: 99.27 °C"}, {"measurement": "Purity", "setting": "[3]; 30° C., month 2", "result": 99.96, "unit": "%"}, {"measurement": "Residual Material (%)", "setting": "[3]; 30° C., month 2", "result": 99.42, "unit": "%"}, {"measurement": "TGA", "setting": "[3]; 30° C., month 2", "result": 0.19, "unit": "%"}, {"measurement": "Appearance", "setting": "[3]; 30° C., month 3", "result": "Off-white"}, {"measurement": "DSC Offset", "setting": "[3]; 30° C., month 3", "result": "Offset: 104.23 °C"}, {"measurement": "DSC Onset", "setting": "[3]; 30° C., month 3", "result": "Onset: 98.72 °C"}, {"measurement": "Purity", "setting": "[3]; 30° C., month 3", "result": 99.96, "unit": "%"}, {"measurement": "Residual Material (%)", "setting": "[3]; 30° C., month 3", "result": 99.44, "unit": "%"}, {"measurement": "TGA", "setting": "[3]; 30° C., month 3", "result": 0.90, "unit": "%"}, {"measurement": "Appearance", "setting": "[3]; 30° C., month 4", "result": "Off-white"}, {"measurement": "DSC Offset", "setting": "[3]; 30° C., month 4", "result": "Offset: 103.62 °C"}, {"measurement": "DSC Onset", "setting": "[3]; 30° C., month 4", "result": "Onset: 99.12 °C"}, {"measurement": "Purity", "setting": "[3]; 30° C., month 4", "result": 99.73, "unit": "%"}, {"measurement": "Residual Material (%)", "setting": "[3]; 30° C., month 4", "result": 99.31, "unit": "%"}, {"measurement": "TGA", "setting": "[3]; 30° C., month 4", "result": 0.69, "unit": "%"}, {"measurement": "Appearance", "setting": "[3]; 30° C., month 5", "result": "Off-white"}, {"measurement": "DSC Offset", "setting": "[3]; 30° C., month 5", "result": "Offset: 103.92 °C"}, {"measurement": "DSC Onset", "setting": "[3]; 30° C., month 5", "result": "Onset: 98.71 °C"}, {"measurement": "Purity", "setting": "[3]; 30° C., month 5", "result": 99.96, "unit": "%"}, {"measurement": "Residual Material (%)", "setting": "[3]; 30° C., month 5", "result": 100.22, "unit": "%"}, {"measurement": "TGA", "setting": "[3]; 30° C., month 5", "result": 0.51, "unit": "%"}, {"measurement": "Appearance", "setting": "[3]; 40° C., month 0", "result": "Off-white"}, {"measurement": "DSC Offset", "setting": "[3]; 40° C., month 0", "result": "Offset: 104.25 °C"}, {"measurement": "DSC Onset", "setting": "[3]; 40° C., month 0", "result": "Onset: 98.8 °C"}, {"measurement": "Purity", "setting": "[3]; 40° C., month 0", "result": 99.96, "unit": "%"}, {"measurement": "TGA", "setting": "[3]; 40° C., month 0", "result": 0.32, "unit": "%"}, {"measurement": "Appearance", "setting": "[3]; 40° C., month 1", "result": "Off-white"}, {"measurement": "DSC Offset", "setting": "[3]; 40° C., month 1", "result": "Offset: 104.41 °C"}, {"measurement": "DSC Onset", "setting": "[3]; 40° C., month 1", "result": "Onset: 98.89 °C"}, {"measurement": "Purity", "setting": "[3]; 40° C., month 1", "result": 99.97, "unit": "%"}, {"measurement": "Residual Material (%)", "setting": "[3]; 40° C., month 1", "result": 99.59, "unit": "%"}, {"measurement": "TGA", "setting": "[3]; 40° C., month 1", "result": 0.16, "unit": "%"}, {"measurement": "Appearance", "setting": "[3]; 40° C., month 2", "result": "Off-white"}, {"measurement": "DSC Offset", "setting": "[3]; 40° C., month 2", "result": "Offset: 104.05 °C"}, {"measurement": "DSC Onset", "setting": "[3]; 40° C., month 2", "result": "Onset: 98.78 °C"}, {"measurement": "Purity", "setting": "[3]; 40° C., month 2", "result": 99.96, "unit": "%"}, {"measurement": "Residual Material (%)", "setting": "[3]; 40° C., month 2", "result": 100.11, "unit": "%"}, {"measurement": "TGA", "setting": "[3]; 40° C., month 2", "result": 0.13, "unit": "%"}, {"measurement": "Appearance", "setting": "[3]; 40° C., month 3", "result": "Off-white"}, {"measurement": "DSC Offset", "setting": "[3]; 40° C., month 3", "result": "Offset: 103.33 °C"}, {"measurement": "DSC Onset", "setting": "[3]; 40° C., month 3", "result": "Onset: 98.69 °C"}, {"measurement": "Purity", "setting": "[3]; 40° C., month 3", "result": 99.96, "unit": "%"}, {"measurement": "Residual Material (%)", "setting": "[3]; 40° C., month 3", "result": 98.97, "unit": "%"}, {"measurement": "TGA", "setting": "[3]; 40° C., month 3", "result": 0.51, "unit": "%"}, {"measurement": "Appearance", "setting": "[3]; 40° C., month 5", "result": "Off-white"}, {"measurement": "DSC Offset", "setting": "[3]; 40° C., month 5", "result": "Offset: 103.83 °C"}, {"measurement": "DSC Onset", "setting": "[3]; 40° C., month 5", "result": "Onset: 98.49 °C"}, {"measurement": "Purity", "setting": "[3]; 40° C., month 5", "result": 99.96, "unit": "%"}, {"measurement": "Residual Material (%)", "setting": "[3]; 40° C., month 5", "result": 99.68, "unit": "%"}, {"measurement": "TGA", "setting": "[3]; 40° C., month 5", "result": 0.46, "unit": "%"}]}, {"compound": "epinephrine maleate", "values": [{"measurement": "pH", "setting": "[4]", "result": 4.48}]}]}
